Source: PubChem BioAssay (NCI)
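Cultured in 96-well plates, cells were exposed to test compound for 48 hours across five concentrations. The concentration for full growth arrest is given as TGI.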 Where a SMILES comes first, the peptide text is derived from it. [ ]: non-standard residue; d: D form. The star is where a group is joined. hSer = N[CH](CCO)C(=O)O; Boc = CC(C)(C)OC(=O)*

How the values were obtained:
Assay in all cases: DTP human tumour cell line panel, 48 h
ACHN renal = test system: ACHN renal
M19-MEL melanoma = test system: M19-MEL melanoma
U251 CNS = test system: U251 CNS
OVCAR-3 ovarian = test system: OVCAR-3 ovarian
DMS 273 small cell lung = test system: DMS 273 small cell lung
SK-OV-3 ovarian = test system: SK-OV-3 ovarian
A549 NSCLC = test system: A549 NSCLC
KM12 colon = test system: KM12 colon
BT-549 breast = test system: BT-549 breast
MDA-MB-435 = test system: MDA-MB-435

Compound | TGI (ACHN renal) [µM] | TGI (M19-MEL melanoma) [µM] | TGI (U251 CNS) [µM] | TGI (OVCAR-3 ovarian) [µM] | TGI (DMS 273 small cell lung) [µM] | TGI (SK-OV-3 ovarian) [µM] | TGI (A549 NSCLC) [µM] | TGI (KM12 colon) [µM] | TGI (BT-549 breast) [µM] | TGI (MDA-MB-435) [µM]
O=c1[nH]cnc2c1nnn2CCCn1nnc2c(=O)[nH]cnc21 | > 100 | > 100 | > 100 | > 100 | > 100 | > 100 | > 100 | > 100 | – | –
CC(=O)N[C@@H](Cc1ccc(O)cn1)C(=O)NCc1cccc(F)c1 | > 100 | – | > 100 | > 100 | – | > 100 | > 100 | > 100 | > 100 | > 100
c1cnc2c(c1)-n1cccc1C1(CCOCC1)NN2 | > 100 | > 100 | > 100 | > 100 | > 100 | > 100 | > 100 | > 100 | – | –
COC(=O)/C(=C/c1ccc(OC)cc1)C(C(=O)O)=C(C)C | – | > 100 | > 100 | > 100 | > 100 | > 100 | > 100 | > 100 | – | –
COc1c2cc(C(C)(C)C)cc1CSCc1cc(C(C)(C)C)cc(c1OC)CCCCC2 | > 50 | – | > 50 | > 50 | – | > 50 | > 50 | > 50 | > 50 | > 50
Oc1c(Cl)c2nccnc2c2ccccc12 | > 100 | > 100 | > 100 | > 100 | > 100 | > 100 | > 100 | > 100 | – | –
COCCC(NC(=O)C(CC(C)C)NC(=O)OC(C)(C)C)C(N)=O (stereo not drawn) (Boc-Leu-[hSer](Me)-NH2; configuration not given here) | > 100 | – | > 100 | > 100 | – | > 100 | > 100 | > 100 | > 100 | > 100
COc1ccc2nc3ccc(OC)cc3c(S(=O)Cc3ccc([N+](=O)[O-])cc3)c2c1 (stereo unspecified) | 11.2 | – | > 55.2 | 14.2 | – | 40.1 | > 58 | 42 | 33.4 | 26
CN(C)CC1CCC/C(=C\c2ccc(N(C)C)cc2)C1=O (stereo unspecified) | 34 | – | 30.7 | 9.36 | – | 31.7 | 32.1 | 2.93 | 29.7 | 17.4
O=C1Nc2ccccc2C(=O)OC(Cc2ccccc2)=Nc2ccccc21 | > 100 | – | > 100 | > 100 | – | > 100 | > 100 | > 100 | > 100 | > 100
COc1cc2c(cc1O)[C@H](C)C(c1ccc(Cl)cc1)O2 (stereo partly specified) | 27.8 | 33 | 69 | > 100 | 34.5 | > 100 | 98.6 | 62.1 | – | –
COc1c(C2(c3ccc(F)cc3)SCCCS2)c(=O)c1=O | > 100 | – | > 100 | > 100 | – | > 100 | > 100 | > 100 | > 100 | > 100
Fc1cccc(F)c1C1SCC2=Nc3ccccc3CN21 (stereo unspecified) | > 100 | – | > 100 | 47.5 | – | > 100 | > 100 | > 100 | > 100 | > 100
On1c(-c2ccccc2)c(-c2c(-c3ccccc3)n(O)c3ccccc23)c2ccccc21 | 87.5 | > 100 | > 100 | > 100 | > 100 | 80.6 | > 100 | > 100 | – | –
